Measurements taken from patent publication US20040024055A1, “Pharmaceutical composition containing the exract of saururus chinensis baill useful as an anticancer agent and a process for the preparation thereof” (priority 2000, published 2004).
Values after ≈ are worked out from the molar mass of the structure shown.

Columns and labels:
NIH-3T3 = assay: MTT analysis, cytotoxicity against normal cell line; type: cell-based, mouse; settings: 10 μg/ml sample
SK-BR-3 = assay: MTT analysis, anticancer activity; type: cell-based, human; settings: 48 hr
3T3-L1 = assay: MTT analysis, cytotoxicity against normal cell line; type: cell-based, mouse; settings: 10 μg/ml sample
T-47D = assay: MTT analysis, anticancer activity; type: cell-based, human; settings: 48 hr
T98G = assay: MTT analysis, anticancer activity; type: cell-based, human; settings: 48 hr
CHO = assay: MTT analysis, cytotoxicity against normal cell line; type: cell-based, Chinese hamster; settings: 10 μg/ml sample
HT-29 = assay: MTT analysis, anticancer activity; type: cell-based, human; settings: 10 μg/ml sample
HS-578T = assay: MTT analysis, anticancer activity; type: cell-based, human; settings: 10 μg/ml sample
HeLa = assay: MTT analysis, anticancer activity; type: cell-based, human; settings: 48 hr
KATO-III = assay: MTT analysis, anticancer activity; type: cell-based, human
ME-180 = assay: MTT analysis, anticancer activity; type: cell-based, human; settings: 10 μg/ml sample
Hep-2 = assay: MTT analysis, anticancer activity; type: cell-based, human
HS683 = assay: MTT analysis, anticancer activity; type: cell-based, human; settings: 48 hr
SK-MEL-28 = assay: MTT analysis, anticancer activity; type: cell-based, human; settings: 48 hr
MCF-7 = assay: MTT analysis, anticancer activity; type: cell-based, human
HT1080 = assay: MTT analysis, anticancer activity; type: cell-based, human; settings: 48 hr
Solubility = type: physicochemical
A431 = assay: MTT analysis, anticancer activity; type: cell-based, human; settings: 48 hr
[1] = tested on: PC-3 prostate cancer cell line; assay: MTT analysis, anticancer activity; type: cell-based, human; settings: 48 hr
Method: (§1) To be specific, SK-Hep-1 cell, which is liver cancer cell line, was added to 96-well microplate (Falcon, USA) with the concentration of 3×10^5 cells/ml by 100 μl per well. Each extracted and separated substance dissolved in DMSO was added to the well by 100 μl for the final concentration to be from 50 μg/ml to 0.0244 μg/ml, with 200 μl of final volume. Each cell was cultured for 48 hr in a culture medium of 37° C. and 5% CO2. After cultivation, 20 μl of phosphate buffer solution containing 5 mg/ml of MTT (3-[4,5-dimethylthiazol-2-yl]-2,5-diphenyltetrazoliumbromide, Sigma Co.) reagent was added to each well, and then cultured for 4 hr. After taking 100 μl of supernant from each culture medium, 100 μl of 0.04N hydrochloric acid-isopropanol was added. After letting alone overnight, absorbance was measured at 560 nm using automatic Eliza detector (Molecular Divices Corp., USA). Anticancer activity of each extracted and separated substance was calculated from the absorbance value by Equation 1 and was expressed in terms of cell.
(§2) Average Existence Rate(%)=(Absorbance of Treated Group)/(Absorbance of Control Group)×100

[2] = tested on: DU-145 prostate cancer cell line; assay: MTT analysis, anticancer activity; type: cell-based, human; settings: 48 hr
Method: as §1, §2

BT-20 = assay: MTT analysis, anticancer activity; type: cell-based, human; settings: 48 hr
BT-549 = assay: MTT analysis, anticancer activity; type: cell-based, human; settings: 10 μg/ml sample
SK-N-SH = assay: MTT analysis, anticancer activity; type: cell-based, human; settings: 48 hr
HS27 = assay: MTT analysis, cytotoxicity against normal cell line; type: cell-based, human; settings: 10 μg/ml sample
NCI-H69 = assay: MTT analysis, anticancer activity; type: cell-based, human; settings: 10 μg/ml sample
[3] = tested on: SK-Hep-1 liver cancer cell line; assay: MTT analysis, anticancer activity; type: cell-based, human; settings: 48 hr
Method: as §1, §2

SK-OV-3 = assay: MTT analysis, anticancer activity; type: cell-based, human; settings: 10 μg/ml sample
CPAE = assay: MTT analysis, cytotoxicity against normal cell line; type: cell-based, bovine; settings: 10 μg/ml sample
293 = assay: as above; type: cell-based, human; settings: 10 μg/ml sample
LoVo = assay: MTT analysis, anticancer activity; type: cell-based, human; settings: 10 μg/ml sample
HS-746T = assay: MTT analysis, anticancer activity; type: cell-based, human; settings: 10 μg/ml sample

## COc1ccc(C(O)C(C)Oc2ccc(C3OC(c4ccc(OC(C)[C@@H](O)c5ccc(OC)c(OC)c5)c(OC)c4)C(C)C3C)cc2OC)cc1OC (single isomer, unassigned) [HNP-98701A, epi-manassantin A]
NIH-3T3
  Existence rate class, NIH-3T3 (in IC50 table): N.E. (Not effective; existence rate larger than 90% for 10 μg/ml sample)
SK-BR-3
  IC50 SK-BR-3: 0.1698 µg/mL (≈ 0.232 µM)
3T3-L1
  Existence rate class, 3T3-L1 (in IC50 table): N.E.^b (Not effective; existence rate larger than 90% for 10 μg/ml sample)
T-47D
  IC50 T-47D: 0.0400 µg/mL (≈ 0.0546 µM)
T98G
  IC50 T98G: 0.2470 µg/mL (≈ 0.337 µM)
CHO
  Existence rate class, CHO (in IC50 table): * (Existence rate larger than 60% for 10 μg/ml sample)
HT-29
  Existence rate class, HT-29 (in IC50 table): * (Existence rate larger than 60% for 10 μg/ml sample)
HS-578T
  Existence rate class, HS-578T (in IC50 table): N.E.^b (Not effective; existence rate larger than 90% for 10 μg/ml sample)
HeLa
  IC50 HeLa: 0.4233 µg/mL (≈ 0.578 µM)
KATO-III; Homo sapiens, KATO III, 48 h, read-out: IC50 KATO-III, MTT, 48 hr
  IC50: 0.617 µg/mL (≈ 0.842 µM)
ME-180
  Existence rate class, ME-180 (in IC50 table): * (Existence rate larger than 60% for 10 μg/ml sample)
Hep-2; Homo sapiens, HEp-2, 48 h, read-out: IC50 Hep-2, MTT, 48 hr
  IC50: 0.0406 µg/mL (≈ 0.0554 µM)
HS683
  IC50 HS683: 0.5561 µg/mL (≈ 0.759 µM)
SK-MEL-28
  IC50 SK-MEL-28: 0.2544 µg/mL (≈ 0.347 µM)
MCF-7; Homo sapiens, MCF7, 48 h, read-out: IC50 MCF-7
  IC50: > 10 µg/mL
HT1080
  IC50 HT1080: 0.4267 µg/mL (≈ 0.582 µM)
Solubility
  Solubility in methanol, ethanol, ethyl acetate, chloroform and dimethylsulfoxide (DMSO): highly soluble
  Solubility in water, acetone, ether and hexane: insoluble
A431
  IC50 A431: 0.4903 µg/mL (≈ 0.669 µM)
[1]
  IC50 PC-3: 0.1249 µg/mL (≈ 0.17 µM)
[2]
  IC50 DU-145: 0.0537 µg/mL (≈ 0.0733 µM)
BT-20
  IC50 BT-20: 0.0996 µg/mL (≈ 0.136 µM)
BT-549
  Existence rate class, BT-549 (in IC50 table): *^a (Existence rate larger than 60% for 10 μg/ml sample)
SK-N-SH
  IC50 SK-N-SH: 1.2849 µg/mL (≈ 1.75 µM)
HS27
  Existence rate class, HS27 (in IC50 table): N.E. (Not effective; existence rate larger than 90% for 10 μg/ml sample)
NCI-H69
  Existence rate class, NCI-H69 (in IC50 table): * (Existence rate larger than 60% for 10 μg/ml sample)
[3]
  IC50 SK-Hep-1: 0.0795 µg/mL (≈ 0.108 µM)
SK-OV-3
  Existence rate class, SK-OV-3 (in IC50 table): N.E. (Not effective; existence rate larger than 90% for 10 μg/ml sample)
CPAE
  Existence rate class, CPAE (in IC50 table): * (Existence rate larger than 60% for 10 μg/ml sample)
293
  Existence rate class, 293 (in IC50 table): *^a (Existence rate larger than 60% for 10 μg/ml sample)
LoVo
  Existence rate class, LoVo (in IC50 table): * (Existence rate larger than 60% for 10 μg/ml sample)
HS-746T
  Existence rate class, HS-746T (in IC50 table): * (Existence rate larger than 60% for 10 μg/ml sample)

## COc1ccc(C(O)C(C)Oc2ccc(C3OC(c4ccc(OC(C)[C@@H](O)c5ccc(OC)c(OC)c5)c(OC)c4)C(C)C3C)cc2OC)cc1OC (single isomer, unassigned) [HNP-98701B]
NIH-3T3
  Existence rate class, NIH-3T3 (in IC50 table): N.E. (Not effective; existence rate larger than 90% for 10 μg/ml sample)
SK-BR-3
  IC50 SK-BR-3: 0.0866 µg/mL (≈ 0.118 µM)
3T3-L1
  Existence rate class, 3T3-L1 (in IC50 table): N.E. (Not effective; existence rate larger than 90% for 10 μg/ml sample)
T-47D
  IC50 T-47D: 0.0167 µg/mL (≈ 0.0228 µM)
T98G
  IC50 T98G: 0.1003 µg/mL (≈ 0.137 µM)
CHO
  Existence rate class, CHO (in IC50 table): * (Existence rate larger than 60% for 10 μg/ml sample)
HT-29
  Existence rate class, HT-29 (in IC50 table): * (Existence rate larger than 60% for 10 μg/ml sample)
HS-578T
  Existence rate class, HS-578T (in IC50 table): N.E. (Not effective; existence rate larger than 90% for 10 μg/ml sample)
HeLa
  IC50 HeLa: 0.1680 µg/mL (≈ 0.229 µM)
KATO-III; MTT, 48 hr
  IC50 KATO-III: 0.4477 µg/mL (≈ 0.611 µM)
ME-180
  Existence rate class, ME-180 (in IC50 table): * (Existence rate larger than 60% for 10 μg/ml sample)
Hep-2; MTT, 48 hr
  IC50 Hep-2: 0.0329 µg/mL (≈ 0.0449 µM)
HS683
  IC50 HS683: 0.2325 µg/mL (≈ 0.317 µM)
SK-MEL-28
  IC50 SK-MEL-28: 0.1123 µg/mL (≈ 0.153 µM)
MCF-7; MTT, 48 hr
  IC50 MCF-7: >10 µg/mL
HT1080
  IC50 HT1080: 0.1882 µg/mL (≈ 0.257 µM)
Solubility
  Solubility in methanol, ethanol, ethyl acetate, chloroform and dimethylsulfoxide (DMSO): highly soluble
  Solubility in water, acetone, ether and hexane: insoluble
A431
  IC50 A431: 0.2344 µg/mL (≈ 0.32 µM)
[1]
  IC50 PC-3: 0.0695 µg/mL (≈ 0.0948 µM)
[2]
  IC50 DU-145: 0.0184 µg/mL (≈ 0.0251 µM)
BT-20
  IC50 BT-20: 0.0292 µg/mL (≈ 0.0398 µM)
BT-549
  Existence rate class, BT-549 (in IC50 table): * (Existence rate larger than 60% for 10 μg/ml sample)
SK-N-SH
  IC50 SK-N-SH: 0.4314 µg/mL (≈ 0.589 µM)
HS27
  Existence rate class, HS27 (in IC50 table): N.E. (Not effective; existence rate larger than 90% for 10 μg/ml sample)
NCI-H69
  Existence rate class, NCI-H69 (in IC50 table): * (Existence rate larger than 60% for 10 μg/ml sample)
[3]
  IC50 SK-Hep-1: 0.0388 µg/mL (≈ 0.0529 µM)
SK-OV-3
  Existence rate class, SK-OV-3 (in IC50 table): N.E. (Not effective; existence rate larger than 90% for 10 μg/ml sample)
CPAE
  Existence rate class, CPAE (in IC50 table): * (Existence rate larger than 60% for 10 μg/ml sample)
293
  Existence rate class, 293 (in IC50 table): * (Existence rate larger than 60% for 10 μg/ml sample)
LoVo
  Existence rate class, LoVo (in IC50 table): * (Existence rate larger than 60% for 10 μg/ml sample)
HS-746T
  Existence rate class, HS-746T (in IC50 table): * (Existence rate larger than 60% for 10 μg/ml sample)
